For one assay, the target named is T1, PKCα (Homo sapiens, UniProt P17252).
T1 construct: isolate and photo-release endogenous PKCa from the undiluted detergent fractionated HeLa cell extracts; endogenous in cells; host or cells: HeLa (ATCC)
The experiment in a line: PMA mediated PKCα sub-cellular translocation, measured by kinase activity after photocleavable antibody isolation. Format: cell-based. The settings on record: cultured HeLa cells, 200 nM PMA for 5 min, detergent fractionated; based on kinase activity of isolated PKCα; n=4. As to the method:
FIG. 20. Phorbol ester (PMA) mediated protein kinase Cα (PKCα) sub-cellular translocation as measured by functional activity following isolation with photocleavable antibodies. Cultured HeLa cells were stimulated with 200 nM PMA for 5 min and detergent fractionated into the cytosol and membrane compartments prior to isolation and purification with the photocleavable antibodies.
Cultured HeLa cells (ATCC; Manassas, Va.) were stimulated for 5 min with 200 nM Phorbol-12-Myristate-13-Acetate (PMA; EMD Biosciences, Inc., San Diego, Calif.) and subsequently detergent fractionated into sub-cellular compartments according to reported procedures [Ramsby et al. (1994) Electrophoresis 15, 265-277; Ramsby & Makowski. (1999) Methods Mol Biol 112, 53-66; Chiang et al. (2000) J Biochem Biophys Methods 46, 53-68]. PMA is a potent activator of PKCα and is well known to cause translocation of the kinase from the cytosolic to the membrane sub-cellular compartments [Ross & Joyner. (1997) Endothelium 5, 321-332; Bazan & Rapoport. (1996) JPharmacol Toxicol Methods 36, 87-95; Yazlovitskaya & Melnykovych. (1995) Cancer Lett 88, 179-183]. […]

The next assay addresses T2, MDM2 (Homo sapiens, UniProt Q00987).
T2 construct: polyhistidine (C); made in house; host or cells: rabbit reticulocyte lysate, cell-free (MDM2)
The experiment in a line: p53-MDM interaction assay, complexes pre-formed before contact photo-transfer. Format: binding. The conditions noted are these: complex formed in solution, captured on beads, contact photo-transferred. As to the method:
All steps were performed at +4° C. or on an ice water bath and all reagents and samples were also kept under these conditions during the procedure. […] To facilitate addition of small bead volumes to the samples, the beads were initially prepared to a 10% (v/v) bead suspension with 5 mM DTT in PBS. The samples, now 80 μL each, were then mixed with 10 μL of the 10% (v/v) bead suspension corresponding to addition of 1 μL packed bead volume. After capture on the NeutrAvidin beads for 1 hr, beads were washed by mixing 3× briefly (briefly=5 sec vortex mix) in 400 bead volumes per wash of PBS pH 7.5 and 5 mM DTT. The washing procedure was performed in batch mode using 0.45 micron pore size, PVDF membrane, micro-centrifuge Filtration Devices to facilitate manipulation of the small volumes of affinity matrix (˜100 micron beads) and exchange the buffers (Ultrafree-MC Durapore Micro-centrifuge Filtration Devices, 400 μL capacity; Millipore, Billerica, Mass.). Prior to contact photo-transfer of the captured and isolated proteins, the washed pellet of 1 μL of NeutrAvidin agarose beads was suspended in a final volume of 50 μL of 50% glycerol and 5 mM DTT in PBS thereby resulting in a 2% (v/v) bead suspension.

T2 sequence (Q00987 whole entry): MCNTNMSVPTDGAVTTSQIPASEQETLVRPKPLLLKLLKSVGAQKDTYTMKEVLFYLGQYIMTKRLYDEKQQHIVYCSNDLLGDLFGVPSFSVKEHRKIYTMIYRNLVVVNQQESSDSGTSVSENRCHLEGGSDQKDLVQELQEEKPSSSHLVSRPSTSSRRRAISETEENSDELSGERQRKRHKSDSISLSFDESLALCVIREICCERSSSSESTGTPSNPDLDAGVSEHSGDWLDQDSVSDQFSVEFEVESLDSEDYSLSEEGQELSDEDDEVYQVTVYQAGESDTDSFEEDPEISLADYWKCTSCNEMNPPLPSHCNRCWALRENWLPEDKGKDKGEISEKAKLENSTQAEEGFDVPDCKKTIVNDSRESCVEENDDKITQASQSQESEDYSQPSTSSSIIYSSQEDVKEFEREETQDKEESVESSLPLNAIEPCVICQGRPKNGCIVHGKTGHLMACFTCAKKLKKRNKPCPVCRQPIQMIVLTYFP

`CCCCCCCCCCCCCC(=O)O[C@@H]1[C@@H](C)[C@@]2(O)[C@@H](C=C(CO)C[C@]3(O)C(=O)C(C)=C[C@@H]23)[C@@H]2C(C)(C)[C@]12OC(C)=O` [PMA, Phorbol-12-Myristate-13-Acetate]: at PKCα, the “PKCα distribution, cytosol” value worked out at 16±4% and the “PKCα distribution, membrane” value amounted to 84±3%. Regarding “p53 probe: cell-free expressed p53 labeled only with BODIPY-FL using BODIPY-FL-tRNA COMPLETE”, the “binding of cell-free expressed BODIPY-FL p53 probe to MDM bait” value with MDM2 is “selective binding”.
